# Data from publication PMC12040169 (PLOS Biology, 2025).
# Test: in vitro
# Settings: human, hela cells, % viability
row,Structure (SMILES),"viability at 28.5 h, 10 µM"
1,Cc1cc(C)cc(NS(=O)(=O)c2ccc(NC(=O)C(C)Oc3ccc(Cl)cc3Cl)cc2)c1 (stereo not shown) [CBK264894],108%
2,COc1ccc(C(=O)C2=C(O)C(=O)N(CCCN(C)C)C2c2ccc(Cl)c(Cl)c2)c(C)c1 (stereo not shown) [CBK264896],98.8%
3,Cc1ccc(C(=O)C(NC(=O)c2cccs2)Nc2ccc(S(N)(=O)=O)cc2)cc1 (stereo not shown) [CBK264897],89%
4,Cc1c(Cl)cccc1NC(=S)N1CCC(C(N)=O)(N2CCCCC2)CC1 [CBK264900],112%
5,NS(=O)(=O)c1ccc(NS(=O)(=O)c2ccc(NC(=O)Nc3ccc(Cl)cc3)cc2)cc1 [CBK264902],90.9%
6,Cc1cccn2c(=O)c(/C=C3\SC(=S)NC3=O)c(NCCCN3CCOCC3)nc12 [CBK264904],104%
7,COc1ccc(C(=O)C2=C(O)C(=O)N(Cc3cccnc3)C2c2cccc(OC)c2OC)cc1C (stereo not shown) [CBK264906],92.8%
8,CC(C)c1ccc2oc(-c3ccc(NC(=S)NC(=O)c4cncc(Br)c4)cc3)nc2c1 [CBK264913],106%
9,O=c1oc2cc(Oc3ccc([N+](=O)[O-])cc3C(F)(F)F)c(Cl)cc2c2c1CCCC2 [CBK264914],93.7%
10,O=c1[nH]c2ccccc2n1CCCSc1nnc2c(n1)[nH]c1ccccc12 [CBK264917],118%
11,CC(C)Oc1ccc(C(=O)C2=C(O)C(=O)N(Cc3cccnc3)C2c2ccncc2)cc1 (stereo not shown) [CBK264920],90%
12,O=C(CN1CCCCC1)NCCNc1ccc([N+](=O)[O-])cc1Cl [CBK264922],115%
13,Cc1noc(NS(=O)(=O)c2ccc(NC(=O)C3COc4ccccc4O3)cc2)c1C (stereo not shown) [CBK264923],90.1%
14,Cc1ccc(C23CC4CC(CC(C(=O)NC(C(=O)O)C(C)C)(C4)C2)C3)cc1 (stereo not shown) [CBK264924],110%
15,COc1ccc(C(=O)/C=C/c2cccs2)c(OC(=O)c2ccc([N+](=O)[O-])cc2)c1 [CBK264926],118%
16,COc1ccc(OC)c(NC(=S)NCCN2CCOCC2)c1 [CBK264927],96.9%
17,COc1ccc(C(=O)C2=C(O)C(=O)N(Cc3cccnc3)C2c2ccc(OC)cc2OC)c(C)c1 (stereo not shown) [CBK264928],89.7%
18,CC(=O)Nc1ccc(Nc2ncnc3scc(-c4ccccc4)c23)cc1 [CBK264930],93.6%
19,COc1cc(C2C(C(=O)c3ccc(C)o3)=C(O)C(=O)N2Cc2cccnc2)cc(OC)c1OC (stereo not shown) [CBK264933],110%
20,CC(NC(=O)/C(=C\c1ccccc1)NC(=O)c1ccc(Br)o1)C(=O)O (stereo not shown) [CBK264934],107%
21,COc1cc(NC(=S)NCc2ccc(S(N)(=O)=O)cc2)cc(OC)c1 [CBK264935],108%

row,Structure (SMILES),"viability at 28.5 h, 10 µM"
1,CC(C)Oc1ccc(C(=O)C2=C(O)C(=O)N(Cc3cccnc3)C2c2cccc([N+](=O)[O-])c2)cc1 (stereo not shown) [CBK264936],89.2%
2,COC(=O)CC1C(=O)NCCN1C(=O)COc1ccc(Cl)cc1 (stereo not shown) [CBK264938],80%
3,CCc1cc(-c2[nH]nc(C)c2Oc2ccc(C(C)C)cc2)c(O)cc1O [CBK264940],90.7%
4,CC/C(=C\c1sc2ccc3ccccc3c2[n+]1CCCS(=O)[O-])SC [CBK264941],107%
5,COC(=O)c1c(C)oc2cc(Br)c(OCC(=O)c3ccc(Cl)cc3)cc12 [CBK264946],83.5%
6,COc1cc(CCN2C(=O)c3cccc4cccc(c34)C2=O)c(S(=O)(=O)N2CCCC2)cc1OC [CBK264947],102%
7,O=C(Nc1ccccc1C(=O)N1CCN(Cc2ccccc2)CC1)c1ccc(F)cc1 [CBK264948],99.3%
8,CCOC(=O)c1c(C(C)(C)C)oc2ccc(OCC(=O)c3ccc(OC)cc3)cc12 [CBK264950],123%
9,O=[N+]([O-])c1ccc(N2CCN(S(=O)(=O)Cc3ccccc3)CC2)cc1N1CCN(Cc2ccccc2)CC1 [CBK264951],101%
10,Nc1nc(SCC(=O)NCCCO)nc2sc3c(c12)CCC3 [CBK264952],88.7%
11,O=C1NC2(Nc3ccccc31)C(=O)N(Cc1cccc3ccccc13)c1ccccc12 (stereo not shown) [CBK264954],108%
12,COc1cc([N+](=O)[O-])ccc1NC(=O)C1CC(Cl)=CCC1C(=O)O (stereo not shown) [CBK264956],88.8%
13,O=C(NCc1ccccn1)C1CCN(S(=O)(=O)c2ccc(Cl)cc2)CC1 [CBK264959],90.2%
14,CC(C)(C)C(=O)CSc1nnc(-c2ccccc2)n1Cc1ccccc1 [CBK264960],108%
15,CCCCOC(=O)c1c(N)n(CCOC)c2nc3ccccc3nc12 [CBK264961],96.9%
16,CCOc1cc(/C=C2/SC(=S)N(c3cccc(C(F)(F)F)c3)C2=O)ccc1OCC(=O)O [CBK264965],106%
17,CCOc1cc(/C=C2/SC(=S)N(c3cccc(Cl)c3)C2=O)ccc1OCC(=O)O [CBK264966],94.2%
18,Cc1ccc(S(=O)(=O)NCCCC(=O)Oc2cc3oc(=O)c4c(c3cc2Cl)CCC4)cc1 [CBK264967],86.8%
19,Cc1cc(Br)cc(C)c1NC(=O)CSc1nnc(COc2ccccc2Cl)o1 [CBK264968],93%
20,Cc1ccc(S(=O)(=O)N(C)c2c(C)ccc(S(=O)(=O)N(C)CCO)c2C)cc1 [CBK264970],85.5%
21,COc1cc(S(=O)(=O)NCc2ccc3c(c2)OCO3)c(OC)cc1Cl [CBK264972],97.1%

row,Structure (SMILES),"viability at 28.5 h, 10 µM"
1,O=S(=O)(NCCN1CCOCC1)c1ccc(Cl)c(Cl)c1Cl [CBK264973],109%
2,O=C(/C=C/c1ccco1)Nc1cccc2c(NC(=O)/C=C/c3ccco3)cccc12 [CBK264974],99.7%
3,O=C(Cn1cnc2ccccc2c1=O)Oc1cccc(NC2=NS(=O)(=O)c3ccccc32)c1 [CBK264975],83.6%
4,CCOC(=O)c1c(N)n(-c2cccc(C(F)(F)F)c2)c2nc3ccccc3nc12 [CBK264977],95.6%
5,COc1ccc(-c2nc3cc(NC(=O)C(c4ccccc4)c4ccccc4)ccc3o2)cc1 [CBK264980],113%
6,CCCCC12CN3CCN(CC(C3)/C1=N\N=C1/C3CN4CCN(C3)CC1(CCCC)C4)C2 [CBK264981],104%
7,O=C1N=C(Nc2cccc(C(=O)O)c2)S/C1=C/c1cccc(O)c1 [CBK264984],92.5%
8,Cc1cccc(C(=O)NC(=S)Nc2cccc(C(=O)O)c2)c1 [CBK264987],121%
9,Cc1nc(CC(=O)O)c(-c2ccccc2)s1 [CBK264988],110%
10,O=C(CSc1ccc(Cl)cc1)Nc1cccc(-c2nc3ncccc3o2)c1 [CBK264989],105%
11,Cc1ccc(S(=O)(=O)NCCCN2CCOCC2)c(C)c1C [CBK264990],89.7%
12,CC(=O)Nc1cc(Cl)ccc1OS(=O)(=O)c1ccc(Cl)cc1 [CBK264992],90.3%
13,CC(NC(=O)CSc1nnc(-c2ccc(Cl)cc2)n1-c1ccccc1)c1ccccc1 (stereo not shown) [CBK264993],87%
14,COc1ccc(/C=C(/NC(=O)/C=C/c2ccccc2)C(=O)O)cc1 [CBK264996],94.8%
15,C=CCN(CC=C)Cc1c(C)nc2ccc(CC)cc2c1O [CBK264998],92.6%
16,CC1(C)Cc2c(sc(NC(=O)C3CC(Cl)=CCC3C(=O)O)c2C#N)CO1 (stereo not shown) [CBK265002],97.6%
17,O=C(COc1ccc([N+](=O)[O-])cc1)Nc1ccc(S(=O)(=O)N2CCCCC2)cc1 [CBK265003],119%
18,Cc1cc(C)nc(NC(=O)COc2ccc([N+](=O)[O-])cc2)n1 [CBK265004],101%
19,O=C(CSc1nc[nH]n1)Nc1ccccc1[N+](=O)[O-] [CBK265005],100%
20,CCc1ccc(OCC(=O)Nc2ccc3oc(-c4ccc(F)cc4Cl)nc3c2)cc1 [CBK265010],100%
21,O=C(O)c1ccc(CSc2nnc(-c3ccccc3)n2Cc2ccccc2)cc1 [CBK265013],114%

row,Structure (SMILES),"viability at 28.5 h, 10 µM"
1,Cc1ccc(S(=O)(=O)Oc2cccc(C(c3c(C)n[nH]c3O)c3c(C)n[nH]c3O)c2)cc1 [CBK265016],95.1%
2,CC(=O)c1c(C)[n+]([O-])c2cc(Cl)c(Cl)cc2[n+]1[O-] [CBK265017],108%
3,CC(C)(C)c1ccc(CNC(=O)C2CCCN2S(=O)(=O)c2ccc3ccccc3c2)cc1 (stereo not shown) [CBK265020],109%
4,COc1cc(C2SCC(=O)Nc3c2c(-c2ccccc2)nn3-c2ccccc2)cc(OC)c1OC (stereo not shown) [CBK265025],108%
5,NC(=O)COc1cccc(/C=C2/SC(Nc3cccc(C(=O)O)c3)=NC2=O)c1 [CBK265027],104%
6,COc1cc(/C=N/N=C(/Nc2ccc(C)cc2)c2nc3ccccc3s2)ccc1O [CBK265029],103%
7,CCOC(=O)c1cnc2ccc(Br)cc2c1NCc1cccnc1 [CBK265030],83.5%
8,Cc1ccc(OCc2nnc(SCC(=O)c3cccs3)n2-c2ccccc2)cc1C [CBK265033],101%
9,CN(C)CCN(CC#Cc1ccccc1)CC#Cc1ccccc1 [CBK265035C],116%
10,S=c1n(CN2CCC(c3ccccc3)CC2)nc(Cc2ccccc2)n1-c1ccccc1 [CBK265037],95.2%
11,O=[N+]([O-])c1ccc(Sc2nnc(COc3ccccc3)n2-c2ccccc2)nc1 [CBK265041],85.8%
12,CCCCOC(=O)c1c(N)n(-c2ccc(C(=O)O)cc2)c2nc3ccccc3nc12 [CBK265046],94.6%
13,Cn1c(Sc2ccc(C(=O)O)cc2[N+](=O)[O-])nnc1-c1ccccc1 [CBK265047],103%
14,CCC(=O)NC(c1ccc(C)cc1)c1cc([N+](=O)[O-])c2cccnc2c1O (stereo not shown) [CBK265048],121%
15,COc1ccccc1/C=N/N=C(/Nc1ccc(C)cc1)c1nc2ccccc2s1 [CBK265051],124%
16,S=c1[nH]nc(Cc2cccc3ccccc23)n1-c1ccccc1 [CBK265052],97.3%
17,N#C/C(=C\c1ccc(-c2cccc(C(=O)O)c2)o1)c1nc2ncc(Br)cc2[nH]1 [CBK265054],96.1%
18,Clc1ccc(SCCN2CCOCC2)cc1 [CBK265055G],98.8%
19,O=C(CN1CCOCC1)Nc1sc2c(c1C(=O)Nc1ccc(Cl)cc1)CCC2 [CBK265056],102%
